Tests used:
Assay type in all cases: cell-based, human
HPDE = test: cleaved caspase 3 sandwich ELISA (apoptosis), HPDE; conditions: 29.6 μg/ml biperiden
Method: (§1) To determine the effect of biperiden, mepazine and combinations of the two active ingredients on apoptosis in cell lines, a “cleaved caspase 3” sandwich ELISA was used. The pancreatic cancer cell lines L3.6pl res, L3.6pl wt, Panc-1, Panc-2 and the reference cell line HPDE were treated with 29.6 μg/ml biperiden or 25 μM mepazine or 15 μM mepazine+3.7 μg/ml biperiden or only with vehicle (DMSO). The cleaved caspase 3 was measured 24, 48 and 72 hours after incubation. The apoptosis within the cells was measured using a PathScan “cleaved caspase 3” sandwich ELISA (Cell Signaling, #7190C) according to the manufacturers instructions. Each experiment was carried out at least 3 times in duplicate.

L3.6pl wt = test: cleaved caspase 3 sandwich ELISA (apoptosis), L3.6pl wt; conditions: 29.6 μg/ml biperiden
Method: as §1

BxPC3 = test: cleaved caspase 3 sandwich ELISA (apoptosis), BxPC3; conditions: 29.6 μg/ml biperiden
Method: [The procedure below names another cell line; the source lists this cell line under the same test.] as §1

Panc-2 = test: cleaved caspase 3 sandwich ELISA (apoptosis), Panc-2; conditions: 29.6 μg/ml biperiden
Method: as §1

[1] = tested on: tested cell lines (L3.6pl res, L3.6pl wt, Panc-1, Panc-2, BxPC3, HPDE); test: cleaved caspase 3 sandwich ELISA (apoptosis), all tested cell lines; conditions: 29.6 μg/ml biperiden
Method: To determine the effect of biperiden, mepazine and combinations of the two active ingredients on apoptosis in cell lines, a “cleaved caspase 3” sandwich ELISA was used. […] The cleaved caspase 3 was measured 24, 48 and 72 hours after incubation. The apoptosis within the cells was measured using a PathScan “cleaved caspase 3” sandwich ELISA (Cell Signaling, #7190C) according to the manufacturers instructions. Each experiment was carried out at least 3 times in duplicate.

Panc-1 = test: MTT proliferation assay, Panc-1
Method: The cell lines used for the proliferation assays were cultured in different media. The cell lines Pan-1, Panc-2 and BxPC3, which have been derived from the human ductal pancreatic adenocarcinoma (PDAC), were cultured in Dulbecco's modified Eagle medium (DMEM) (Sigma), that was supplemented with 1% penicillin/streptomycin (Life technologies/GIBCO 15140-122) and 10% fetal bovine serum (Life technologies/GIBCO 100500-064). The cell line L3.6pl was cultured in RPMI 1640 medium (Life technologies/GIBCO 72400-21) that was supplemented with 1% penicillin/streptomycin and 10% fetal bovine serum. […]
The proliferation rates of the cell lines were determined after stimulation with (i) biperiden, (ii) mepazine, and (iii) stimulation with both active ingredients. […] Next morning, the blanket values were measured at 490 nm in an ELISA reader (FLUOstar Omega, BMG LABTECH) after the addition of 100 μL medium and 20 μL MTT substrate (CellTiter 96 AQueous One Solution Cell Proliferation Assay, Promega). […] The ex-tinction was measured every 24 hours during a period of 72 hours.
The normal distribution of the results was analyzed by Kolgomorov-Smirnov test and Shapiro-Wilk test. Non-parametric variables were analyzed using the Mann-Whitney-U test. […]

Question: Which “cleaved caspase 3” value (HPDE; after 48 hours) does the source give for `OC(CCN1CCCCC1)(c1ccccc1)C1CC2C=CC1C2` (stereo not drawn) [biperiden] here?
Answer: 265.3±27.8 RLU

Question: And the “increase of apoptosis rate compared to vehicle” value (shortened to “increase of apoptosis rate”) (HPDE; after 48 hours, p=0.037)?
Answer: 132%

Question: And the “cleaved caspase 3” value (HPDE; after 72 hours)?
Answer: 368.4±33.5 RLU

Question: And the “increase of apoptosis rate” value (HPDE; after 72 hours, p=0.002)?
Answer: 283.9%

Question: What about the “cleaved caspase 3” value (L3.6pl wt; after 24 hours) of the same molecule?
Answer: 443.4±18.1 RLU

Question: What about the “increase of apoptosis rate” value (L3.6pl wt; after 24 hours, p<0.001) of the same molecule?
Answer: 210.4%

Question: What about the “cleaved caspase 3” value (L3.6pl wt; after 48 hours) of the same molecule?
Answer: 386.2±15.9 RLU

Question: What about the “increase of apoptosis rate” value (L3.6pl wt; after 48 hours, p=0.028) of the same molecule?
Answer: 83.5%

Question: What about the “cleaved caspase 3” value (BxPC3; after 24 hours) of the same molecule?
Answer: 813.1±37.7 RLU

Question: What about the “increase of apoptosis rate” value (BxPC3; after 24 hours, p=0.002) of the same molecule?
Answer: 369.8%

Question: What about the “cleaved caspase 3” value (BxPC3; after 48 hours) of the same molecule?
Answer: 1046.1 ± 34.7 RLU

Question: What about the “increase of apoptosis rate” value (BxPC3; after 48 hours, p=0.004) of the same molecule?
Answer: 357.5%

Question: And the “cleaved caspase 3” value (BxPC3; after 72 hours)?
Answer: 862.8 ± 85.2 RLU

Question: What about the “increase of apoptosis rate” value (BxPC3; after 72 hours, p=0.032) of the same molecule?
Answer: 230.9%

Question: What about the “cleaved caspase 3” value (Panc-2; after 24 hours) of the same molecule?
Answer: 360.0±11.0 RLU

Question: What about the “increase of apoptosis rate” value (Panc-2; after 24 hours, p=0.029) of the same molecule?
Answer: 109.1%

Question: And the “cleaved caspase 3” value (Panc-2; after 48 hours)?
Answer: 306.0±74.8 RLU

Question: What about the “increase of apoptosis rate” value (Panc-2; after 48 hours, p=0.047) of the same molecule?
Answer: 65.3%

Question: What about the apoptosis [1] of the same molecule?
Answer: increased apoptosis was observed in all cell lines

Question: What does the source list for `CN1CCCC(CN2c3ccccc3Sc3ccccc32)C1` (stereo not drawn) [mepazine]?
Answer: reduction of proliferation (Panc-1; 15 μM mepazine, p=0.005): 97.7%; proliferation (Panc-1; 25 μM mepazine, p=0.004): completely stopped
